The values below come from BindingDB's records for doi:10.1021/jm00011a006 (University of Minnesota, 1995).

The structures appear in SMILES notation.

This test concerns the target Aldehyde dehydrogenase (Saccharomyces cerevisiae). As to the kind of experiment: In vitro inhibition against yeast Aldehyde dehydrogenase.

In turn, `CCOC(=O)ON1C(=O)c2ccccc2S1(=O)=O` [Carbonic acid ethyl ester 1,1,3-trioxo-1,3-dihydro-1lambda*6*-benzo[d]isothiazol-2-yl ester] returned an IC50 of 56 µM. This lies in the double-digit micromolar range.
For `CCOC(=O)On1nnc2ccccc21` [Carbonic acid benzotriazol-1-yl ester ethyl ester] the value was 270 µM; for `CCOC(=O)ON(C(=O)OCC)S(=O)(=O)c1ccc(Cl)cc1` [ethyl (4-chlorophenyl)sulfonyl[(ethoxycarbonyl)oxy]carbamate], 24 µM.
